Legend:
[1] = P450 metabolism analysis using human microsomes; assay type: in vitro ADME; conditions: human
Method: PK studies were performed in the IU Simon Cancer Center Clinical Pharmacology Analytical Core (CPAC), as previously described for E3330 (Fishel et al., 2011) and standards for the compounds used. P450 metabolism studies using human microsomes were also performed in CPAC directed by Dr. David Jones.

[2] = system: sensory neuronal cultures; experiment: Neuronal cell viability (trypan blue exclusion); assay type: cell-based
Method: (§1) Primary cultures of sensory neurons were harvested and maintained as previously described (Vasko et al., 2005). Briefly, adult male Sprague-Dawley rats (150-175 g; Harlan, Indianapolis, Ind.) were euthanized by CO2 asphyxiation and dorsal root ganglia (DRG) dissected from all spinal levels, transferred to into a collagenase solution (1 mg/ml), incubated for 1 hour at 37° C., then dissociated by mechanical agitation. Approximately 30,000 cells or 60,000 cells were plated into each well of 12-well or 6-well culture plates, respectively. All culture dishes were precoated with poly-D-lysine and laminin. Cells were maintained in F-12 media supplemented with 10% horse serum, 2 mM glutamine, 100 μg/ml Normocin™, 50 μg/ml penicillin, 50 μg/ml streptomycin, 50 μM 5-fluoro-2′-deoxyuridine (Invitrogen), 150 μM uridine, and 30 ng/ml of NGF in 3% CO2 at 37° C. Growth medium was changed every other day. Experiments were performed after cells were maintained in culture for 12-14 days.
Sensory neuronal culture trypan blue exclusion analysis was performed as previously described (Vasko et al., 2011). Cells were detached by adding a 0.05% trypsin-EDTA solution and media to each well. An equal volume of 0.4% (w/v) trypan blue in PBS was added to the cell suspension and the numbers of living cells (i.e., those that exclude the dye) were counted under a phase contrast microscope using a hemacytometer. Percent survival was calculated as the percent of live cells divided by the total cell number (including dead and live cells).

[3] = system: sensory neurons in culture; assay type: cell-based, rat
Method: as §1
For release experiments, cell cultures were washed with HEPES buffer consisting of (in mM) 25 HEPES, 135 NaCl, 3.5 KCl, 2.5 CaCl2, 1 MgCl2, 3.3 D-glucose, and 0.1% bovine serum albumin, pH 7.4 and maintained at 37° C. They then were incubated for successive 10-minute intervals with 0.4 ml of HEPES buffer alone (basal release), with buffer containing 30 nM capsaicin, then with buffer alone (to assess return to basal release). After each incubation, the buffer was removed and the amount of immunoreactive calcitonin-gene related peptide (CGRP) in each sample was measured using radioimmunoassay (RIA) as previously described (Chen et al., 1996). At the end of the release protocol, CGRP is extracted from the cultures and total content measured using RIA.

Ref-1/APE1 = target: T1, Ref-1/APE1 (Rattus norvegicus, UniProt P43138); experiment: Ref-1/APE1 endonuclease activity in isolated sensory neurons; assay type: cell-based
T1 construct: When isolated sensory neurons were exposed to APX3330; endogenous in cells; host or cells: isolated sensory neurons
T1 sequence (P43138 whole entry): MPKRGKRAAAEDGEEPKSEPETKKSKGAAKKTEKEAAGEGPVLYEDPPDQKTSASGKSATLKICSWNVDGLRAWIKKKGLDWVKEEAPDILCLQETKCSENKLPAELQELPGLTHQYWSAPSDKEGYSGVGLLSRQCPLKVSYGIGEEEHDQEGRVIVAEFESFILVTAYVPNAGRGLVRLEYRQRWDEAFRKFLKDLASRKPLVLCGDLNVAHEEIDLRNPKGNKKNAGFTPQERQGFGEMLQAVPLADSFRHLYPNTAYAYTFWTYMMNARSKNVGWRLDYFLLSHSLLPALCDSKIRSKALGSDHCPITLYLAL

## CCCCCCCCC/C(=C\C1=C(C)C(=O)C(OC)=C(OC)C1=O)C(=O)O [APX3330]
[1]
  half-life: 20 min
[2]; 20 μM for 48 hours prior to and throughout the cisplatin treatment (24 hours)
  effect on cisplatin-induced cell death: blocked
[2]; 24 hours, E3330 10, 20 or 40 μM, APX2009 various concentrations
  cell death / cell viability, drug alone: no significant cell death
[3]; 20 μM for 48 hours prior to and throughout exposure to 10 μM cisplatin
  effect on cisplatin-induced reduction in capsaicin-evoked CGRP release: abolished the reduction in release
[3]; 72 hours, E3330 20 μM, APX2009 10 or 20 μM, compared to untreated cells
  basal (resting) release or release of CGRP stimulated by 30 nM capsaicin, drug alone: no significant change
Ref-1/APE1
  Ref-1/APE1 endonuclease activity: concentration-dependent increase in Ref-1/APE1 endonuclease activity
